Reference: patent publication US12201598B2, “Immunoregulatory microparticles for modulating inflammatory arthritides” (The Regents of the University of California, priority 2021, dated 2025)

Key:
[1] = test system: rodents; settings: cited from earlier work
[2] = test system: healthy C57BL/6J (B6) mice; assay: OVA immunization in healthy C57BL/6J mice; type: in vivo, mouse; settings: spleen; daily i.p. administration
Excerpt: To quantify the effect of IA ATRA-encapsulated PLGA MPs on arthritis-irrelevant T cell suppression we leveraged OVA-specific tetramers available for quantifying T cells in H2b-background mice and conducted the aforementioned immunization study in healthy C57BL/6J (B6) mice (FIG. 8D). Systemically administered ATRA was delivered as a daily intraperitoneal (i.p.) injection to assess the effect of systemic exposure.

[3] = test system: Naïve SKG CD4+ T cells; assay: ex vivo Th17 differentiation assay in Th17 inflammatory conditions; type: cell-based, mouse; settings: for FoxP3 expression in CD4+ T cells: Th17 polarizing cytokines, four days
Procedure: To test the effect of ATRA on enhancing Treg cells, an ex vivo differentiation and stabilization assay in Th17 inflammatory conditions using cytokine supplementation was performed (FIG. 1A). Naïve SKG CD4+ T cells were isolated to consistently obtain greater than 90% CD4+CD44−CD62L+ post-enrichment (data not shown). Subsequently, these cells were stimulated with anti-mouse CD3 (αCD3) and CD28 (αCD28) antibodies along with Th17 polarizing cytokines IL-6, TGF-β1, IL-1β, and IL-23, and immunophenotypes were analyzed after four days. In a subset of conditions, ATRA was added to the T cell culture medium, ranging from 10 pM to 10 nM. […] In addition to reduced expression of IL-17A, the fraction of RORγt+CD4+ T cells was reduced in 1 nM ATRA conditions (53.3±7.9%) relative to cells exposed 0 nM ATRA (73.3±3.9%) (FIG. 1D).
(§1) The bioactivity of released ATRA was assessed following the experimental schematic outlined in FIG. 1A with supernatant collected at day 1, 14 and 28 and replicates diluted to the expected joint concentration based on delivery of 2 μg ATRA-encapsulated PLGA MPs injected in ˜20 μL of synovial fluid.

[4] = test system: CD4+ T cells; assay: 24-hour pretreatment then transfer to Th17 inducing conditions; type: cell-based; settings: 24-hour pretreatment 1 nM ATRA, washed
Procedure: FIG. 10A depicts the quantification of FOXP3 expression in CD4+ T cells after 24-hour pretreatment with either nothing (None), 1 nM ATRA (ATRA), or IL-2, followed by removal and washing of the cells, and transfer to Th17 inducing conditions. FIG. 10B depicts quantification of IL-17 expression in CD4+ T cells after a 24-hour pretreatment with either nothing (None), 1 nM ATRA (ATRA), or IL-2, followed by removal and washing of the cells, and transfer to Th17 inducing conditions. Pre-treatment of the CD4+ T cells with ATRA increases FOXP3 expression and reduces IL-17 expression after exposure to Th17 inducing conditions.

[5] = test system: chromatin of cells cultured in Th17 inducing conditions; assay: Assay for Transposase Accessible Chromatin (ATAC) sequencing; type: cell-based
Procedure: Assay for Transposase Accessible Chromatin (ATAC) sequencing assay uses a hyperactive protein to bind and snip DNA in open chromatin regions to probe for the parts of DNA are accessible for transcription. The ATAC assay was performed to determine whether ATRA causes epigenetic modifications to cellular DNA to influence the accessibly of DNA for transcription and, in turn, modulating what a cell's “default” state/programs are. Quantification of differentially accessible regions (DARs) is shown by counts per peak between cells cultured in Th17 inducing conditions with (ATRA Treated) or without (Th17 Control) 1 nM ATRA. (FIG. 11A).
FIG. 11C is a heatmap of all DARs grouped in rows by those enriched in the ATRA treated group or those enriched in the Tb17 Control group. Heatmapping was performed by determining the z-score of the DAR in a given sample as compared to the row. A Genome browser plot for Th17 and Treg associated genes is shown (FIG. 11D). The size of the peaks corresponds to the number of reads, so the bigger the peaks are the more accessible that region of DNA is.

[6] = test system: SKG FoxP3eGFP Treg cells; assay: Treg cell stability (destabilization) assay; type: cell-based, mouse; settings: 1 nM ATRA, IL6, 72 hours
Procedure: The loss of FoxP3 expression correlated with Treg cell transitioning to a Th17-like exTreg cell phenotype, with 23.0±1.7% and 13.3±1.5% of cells without ATRA expressing RORγt and IL-17, respectively, compared to 11.6±1.8% and 5.7±1.1% of cells cultured with 1 nM ATRA (FIGS. 1G and H).
as §1

[7] = test system: SKG mice with mannan-induced arthritis; assay: IA treatment of established SKG arthritis (clinical score, ankle thickness); type: in vivo, mouse
Procedure: To assess the feasibility of modulating established SKG arthritis. ATRA-encapsulated PLGA MPs were injected into the tibial/tarsal ankle joint of ten SKG mice with middle stage arthritis, prior to the development of severe symptoms. PLGA-Blank MPs were injected into the tibial/tarsal ankle joint of eleven SKG mice with middle stage arthritis. Arthritis onset was synchronized using inter-peritoneal (IP) mannan injection. ATRA-encapsulated PLGA MPs treatment was administered after 14 days, corresponding to established SKG arthritis (FIG. 3A). To track MP degradation in vivo, cyanine-5 (Cy5) conjugated PLGA was incorporated to generate fluorescently labeled Cy5 PLGA MPs and PLGA MPs without ATRA (PLGA-Blank MPs). The PLGA-Blank MPs were imaged using a live animal. In Vivo Imaging System (IVIS). […] Based on fluorescence attenuation, MPs remained localized in the joint after injection and steadily degraded over the course of the study (FIG. 3B). Arthritis progression was quantified using bi-weekly clinical scoring between the treatment groups. […] The improvement in clinical score and ankle thickness measurements were quantified in both the ipsilateral and contralateral joints in the above described studies (FIG. 3H-J, FIGS. 6B and C).

[8] = test system: arthritic SKG mice; assay: subcutaneous administration to arthritic SKG mice; type: in vivo, mouse; settings: subcutaneously between the scapula
Procedure: The efficacy of subcutaneously administered ATRA-encapsulated PLGA MPS in treating SKG mice was assessed to determine whether ATRA-encapsulated PLGA MPS act via systemic release, in which case subcutaneous ATRA-encapsulated PLGA MPS treatment would improve disease scores, or if ATRA-encapsulated PLGA MPS treatment acts locally, in which case its delivery to the intra-articular space would improve disease scores. ATRA-encapsulated PLGA MPS, dose-matched Bolus ATRA in corn oil, and vehicle (corn oil) were administered to arthritic SKG subcutaneously between the scapula of SKG mice (FIGS. 9A-B).

Compound: CC1=C(/C=C/C(C)=C/C=C/C(C)=C/C(=O)O)C(C)(C)CCC1 [ATRA, all-trans retinoic acid]
- doses associated with toxicity [1]: > 14 mg/kg
- OVA-specific CD4+ T cells (tetramer staining) [2]: significantly lower
- fraction of IL-17A+CD4+ T cells ([3]; 10 pM ATRA): 9.5±1.7%
- fraction of IL-17A+CD4+ T cells ([3]; 100 pM ATRA): 7.2±1.5%
- fraction of IL-17A+CD4+ T cells ([3]; 1 nM ATRA): 5.4±1.9%
- fraction of RORγt+CD4+ T cells ([3]; 1 nM ATRA): 53.3±7.9%
- fraction of IL-17A+CD4+ T cells ([3]; 10 nM ATRA): 5.4±2.3%
- FoxP3 expression in CD4+ T cells ([3]; ATRA above 100 pM): 40.0±3.4%
- FoxP3 expression in CD4+ T cells ([3]; ATRA below 100 pM): 11.2±2.3%
- FOXP3 expression [4]: increases
- IL-17 expression [4]: reduces
- regions in the DNA more open in the ATRA treated cells ([5]; 1 nM ATRA versus Th17 control): 7957
- accessibility of FoxP3 locus ([5]; 1 nM ATRA, genome browser plot): promotes accessibility
- regions in the DNA more open in the Th17 control ([5]; Th17 control versus 1 nM ATRA): 10316
- cells expressing IL-17 [6]: 5.7±1.1%
- cells expressing RORγt [6]: 11.6±1.8%
- cells retaining FoxP3eGFP expression [6]: 71.6±5.5%

Compound: CC1=C(/C=C/C(C)=C/C=C/C(C)=C/C(=O)O)C(C)(C)CCC1 [bolus ATRA, all-trans retinoic acid]
- severity of arthritis / clinical benefit ([7]; 2 μg IA MPs versus dose-matched IA bolus): no clinical benefit
- clinical scores in ipsilateral and contralateral ankles ([7]; dose-matched IA bolus in corn oil): increased comparably
- ankle swelling [8]: Neither bolus ATRA nor ATRA-encapsulated PLGA MPs provided improvement
- clinical score [8]: Neither bolus ATRA nor ATRA-encapsulated PLGA MPs provided improvement
